# Measurements taken from patent publication US5278191A, “Diphenylmethylaminoacetamide derivatives as anti-convulsants” (G. D. Searle & Co., priority 1991, dated 1994).
# Key:
# [1] = system: mice; design: species or system male Swiss albino mice; conditions: mouse, in vivo, po
# Description: (§1) Treatment of a mammal afflicted by or susceptible to certain CNS disorders is accomplished by administration of a therapeutically-effective amount of a compound of Formula I. In particular, Compounds #1-19 of Tables I and II were evaluated by in vitro and in vivo animal model assays to determine the pharmacological properties of such compounds and their likely suitability for use as therapeutic drugs in humans. These biological assays, as described below, consisted of prevention of induced convulsions in mice, determination of acute toxicity in mice and animal behavior assays. Except as otherwise specified, the animals used in the in vivo tests were male Swiss albino mice weight 22 to 33 g [CD1, Charles River, France], housed in groups of 10 on a 12-hour dark-light cycle for at least one week before use and fasted overnight prior to testing.
# (§2) The acute toxicity of compounds of the invention was determined after oral administration of the test compound to mice. Compound to be tested was suspended in a 1% tragacanth gum mucilage, and was administered by means of an intragastric probe to a group of three male mice, which doses varied from 3,000 mg/kg down to about 3 mg/kg. Doses used in the test were determined by observing toxic effects on the mice. The mortality was recorded over a period of 15 days. The LD50 results reported in Table V were calculated according to published methods [Lichtfield and Wilcoxon, J. Pharmacol. Exp. Ther., 96, 99 (1949)] and expressed in mg or test compound per kilogram of mouse body weight.
# Behavioral effects of compounds of the invention on animals were determined by observations taken at 5 to 6 hours and at 24 hours after administration of compounds in the acute toxicity studies. Determinations were made based on a method derived from that of S. Irwin [See R. A. Turner, Screening Methods in Pharmacology, Chapter 3, pages 22-34, Academic Press, N.Y. (1965)]. If an anomaly were noted, the observation was extended and smaller doses were tested. Possible types of behavior to be observed are as follows: analgesia (AAG), convulsions (CON), depression (DEP), exophthalmia (EOP), excitation (EXC), hyperalgesia (HAG), hypothermia (ATH), hypotonia (ATN), piloerection (PIE), palpebral ptosis (PTO), reduction of the pinna reflex (RPI), reduction of the rearing reflex (RRE), reduction of the flexion reflex (RRF), sedation (SED), tremors (TRE), cyanosis (CYA), diarrhea (DIA), increase of the pinna reflex (HPI), increase of the flexion reflex (HRF), dyspnea (DYS). Behaviors observed are reported in Table IV by numbers which represent the dose at which the behavior is observed.
# [2] = Acute toxicity after oral administration; conditions: mouse, in vivo, mice, mortality over 15 days
# Description: as §1, §2
# [3] = system: 3-mercaptopropionic acid (3-MPA)-induced convulsions; experiment: 3-MPA-induced convulsions, protection of mice; type: in vivo, male Swiss albino mice; conditions: interval 30 min, 3-MPA 120 mg/kg s.c., total protected of two groups of 5 mice
# Description: as §1
# Compounds of Formula I were evaluated as inhibitors of convulsions and death induced by different convulsant agents: 3-mercaptopropionic acid (3-MPA; 120 mg/kg subcutaneously), pentylenetetrazole (PTZ, 55 mg/kg intravenously) and supramaximal electroconvulsive shocks (ECS evoked by a current intensity of 48 mA, 50 Hz. 0.2 sec duration, 10 msec square pulse, corneal electrodes) [W. van Dorsser, D. Barris, A. Cordi and J. Roba, Arch. Int. Pharmacodyn., 266, 239-249 (1983)]. The compounds of the invention were administered orally at a dosage of either 100 mg/kg or 30 mg/kg in a volume of 10 ml/kg each to 5 mice at intervals of 30 minutes or 2 hours before convulsions were induced. The number of mice protected against tonic convulsions and the number of dead mice were noted. Results are given in Table III as a score which represents the total number of mice protected for two groups of 5 animals (3-MPA).
# Based upon data generated from the previously-described anti-convulsant experiments, ED50 values were calculated at which Compound #18 inhibits convulsions induced by the convulsant agents listed in Table V.
# [4] = system: 5HTP-induced head twitch; experiment: 5HTP-induced head twitch; type: in vivo, mice; conditions: under similar test conditions
# Description: as §1
# Compound #18 was evaluated for inhibition of head twitches produced in mice by administration of L-5-hydroxytryptophan (5HTP, 10 mg/kg intraperitoneously) after nialamide treatment (50 mg/kg intraperitoneal, 22 hours before the test). The head twitches were counted for 45 min. starting 15 min. after 5HTP administration. [E. Friedmann & al.; Europ. J. Pharmocol., 89, 69-76 (1983)].
SMILES,Behavior: dose at which sedation (SED) is observed [1],LD50 at 360 h [2],Number of Mice Protected From 3-MPA-Induced Convulsions ([3]; oral 30 mpk),Number of Mice Protected From 3-MPA-Induced Convulsions ([3]; oral 100 mpk),other results
"NC(=O)CNC(c1ccccc1)c1ccc(Br)cc1 (centres unmarked) [Compound 10, 2-[(4-bromophenyl)phenyl]methylaminoacetamide]",1000 mg/kg,> 1000 mg/kg,3 mice,–,–
"NC(=O)CNC(c1ccccc1)c1ccc(C(F)(F)F)cc1 (centres unmarked) [Compound 7, 2-[(4-trifluoromethylphenyl)phenyl]methylaminoacetamide]",–,–,4 mice,–,–
"NC(=O)CNC(c1ccccc1)c1ccc(F)cc1 (centres unmarked) [Compound 12, 2-[(4-fluorophenyl)phenyl]methylaminoacetamide]",–,–,9 mice,10 mice,–
"Cc1ccc(C(NCC(N)=O)c2ccccc2)cc1C (centres unmarked) [Compound 6, 2-[(3,4-dimethylphenyl)phenyl]methylaminoacetamide]",3000 mg/kg,3500 mg/kg,2 mice,–,Behavior: dose at which hypotonia (ATN) is observed [1]: 3000 mg/kg
"NC(=O)CNC(c1ccc(F)cc1)c1ccccc1Cl (centres unmarked) [Compound 17, 2-[(2-chlorophenyl)(4-fluoropheny)]methylaminoacetamide]",–,–,–,10 mice,–
"Cc1ccccc1C(NCC(N)=O)c1ccccc1 (centres unmarked) [Compound 4, 2-[(2-methylphenyl)phenyl]methylaminoacetamide]",300 mg/kg,780 mg/kg,5 mice,–,Behavior: dose at which hypotonia (ATN) is observed [1]: 300 mg/kg
"NC(=O)CNC(c1ccccc1)c1ccc(Cl)cc1 (centres unmarked) [Compound 1, 2-[(4-chlorophenyl)phenyl]methylaminoacetamide]",1000 mg/kg,2400 mg/kg,–,9 mice,Behavior: dose at which convulsions (CON) are observed [1]: 1000 mg/kg; Behavior: dose at which hypotonia (ATN) is observed [1]: 1000 mg/kg
"NC(=O)CNC(c1ccccc1)c1cccc(Cl)c1 (centres unmarked) [Compound 15, 2-[(3-chlorophenyl)phenyl]methylaminoacetamide]",–,–,–,9 mice,–
"NC(=O)CNC(c1ccc(Cl)cc1)c1ccc(Cl)cc1 [Compound 8, 2-[di(4-chlorophenyl)]methylaminoacetamide]",–,–,1 mice,–,–
"Cc1cccc(C(NCC(N)=O)c2ccccc2)c1 (centres unmarked) [Compound 5, 2-[(3-methylphenyl)phenyl]methylaminoacetamide]",1000 mg/kg,3500 mg/kg,2 mice,–,–
"NC(=O)CNC(c1ccc(F)cc1)c1ccccc1F (centres unmarked) [Compound 11, 2-[(4-fluorophenyl)(2-fluorophenyl)]methylaminoacetamide]",100 mg/kg,315 mg/kg,8 mice,–,Behavior: dose at which convulsions (CON) are observed [1]: 1000 mg/kg; Behavior: dose at which depression (DEP) is observed [1]: 1000 mg/kg
"CCCCCNCC(N)=O [2-pentylaminoacetamide, reference compound]",–,–,–,–,effect on 5HTP-induced head twitch (comparison compound) [4]: potentiates 5HTP-induced head twitch
"NC(=O)CNC(c1ccccc1)c1ccccc1Cl (centres unmarked) [Compound 16, 2-[(2-chlorophenyl)phenyl]methylaminoacetamide]",–,–,–,9 mice,–
"Cc1ccc(C(NCC(N)=O)c2ccccc2)c(C)c1 (centres unmarked) [Compound 14, 2-[(2,4-dimethylphenyl)phenyl]methylaminoacetamide]",–,–,3 mice,6 mice,–
"COc1ccc(C(NCC(N)=O)c2ccccc2)cc1 (centres unmarked) [Compound 2, 2-[(4-methoxyphenyl)phenyl]methylaminoacetamide]",–,–,–,8 mice,–
"Cc1ccc(C(NCC(N)=O)c2ccccc2)cc1 (centres unmarked) [Compound 3, 2-[(4-methylphenyl)phenyl]methylaminoacetamide]",1000 mg/kg,> 3000 mg/kg,1 mice,–,Behavior: dose at which depression (DEP) is observed [1]: 3000 mg/kg
"Cc1ccc(C)c(C(NCC(N)=O)c2ccccc2)c1 (centres unmarked) [Compound 9, 2-[(2,5-dimethylphenyl)phenyl]methylaminoacetamide]",–,–,1 mice,–,–
"NC(=O)CNC(c1ccc(F)cc1)c1ccc(F)cc1 [Compound 13, 2-[di(4-fluorophenyl)]methylaminoacetamide]",–,–,5 mice,–,–
